Data published in PubChem BioAssay (NCI).
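Values below derive from 48-hour exposures of cells grown in 96-well plates, with endpoints linearly interpolated between the two concentrations bracketing the appropriate inhibition level. The concentration for 50% growth inhibition is given as GI50. Definition used: TGI = concentration required for complete inhibition of growth.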 Where a SMILES comes first, the peptide text is derived from it.

Key:
Assay in all cases: NCI anticancer screen, dose series, 48 h
MDA-MB-231 breast = test system: MDA-MB-231 breast
UACC-62 melanoma = test system: UACC-62 melanoma
OVCAR-8 ovarian = test system: OVCAR-8 ovarian
786-0 renal = test system: 786-0 renal
ACHN renal = test system: ACHN renal
UACC-257 melanoma = test system: UACC-257 melanoma
HOP-92 NSCLC = test system: HOP-92 NSCLC
UO-31 renal = test system: UO-31 renal
HL-60(TB) leukemia = test system: HL-60(TB) leukemia
SR leukemia = test system: SR leukemia

Compound | TGI (MDA-MB-231 breast) [µM] | TGI (UACC-62 melanoma) [µM] | TGI (OVCAR-8 ovarian) [µM] | TGI (786-0 renal) [µM] | TGI (ACHN renal) [µM] | TGI (UACC-257 melanoma) [µM] | TGI (HOP-92 NSCLC) [µM] | TGI (UO-31 renal) [µM] | TGI (HL-60(TB) leukemia) [µM] | TGI (SR leukemia) [µM] | GI50 (ACHN renal) [µM] | GI50 (MDA-MB-231 breast) [µM] | GI50 (UACC-62 melanoma) [µM] | GI50 (OVCAR-8 ovarian) [µM] | GI50 (SR leukemia) [µM] | GI50 (UACC-257 melanoma) [µM] | GI50 (HOP-92 NSCLC) [µM] | GI50 (UO-31 renal) [µM] | GI50 (HL-60(TB) leukemia) [µM]
COC(CN(C=O)[C@@H](c1ccc(Cl)cc1)c1cc2ccccc2o1)OC | 37 | 29.7 | 31.3 | 51.1 | 41.7 | 28 | 33.7 | 31.2 | 46.3 |  |  |  |  |  |  |  |  |  | 
C1=CC(=[N+]2N=C(c3ccccc3)CC2c2ccccc2)C=CC1=C1SC(c2ccccc2)(c2ccccc2)c2ccccc21 (centres undefined) | > 100 | > 100 | > 100 | > 100 | > 100 |  | > 100 | > 100 | > 100 | > 100 |  |  |  |  |  |  |  |  | 
O=[N+]([O-])c1ccc2c(c1)nc(Cc1ccc(Cl)cc1)n2C[C@@H]1CCCN2CCCCC12 (some centres undefined) | 32.6 | 28.7 | 30.4 | 24.5 | 29 | 31.4 | 25.4 |  | 66.1 | > 100 |  |  |  |  |  |  |  |  | 
O=C1/C(=C\c2ccc(F)cc2)CCOc2c1ccc1ccccc21 | > 47.7 | > 100 | 35.2 | 62.5 | > 100 | 54.4 | 71.5 | > 100 | > 72.4 |  | 47.9 |  |  |  |  |  |  |  | 
COc1cc2c(cc1OCCCCCCCCN1C(=O)c3cccc4cccc(c34)C1=O)N=C[C@@H]1CCCN1C2=O | 34 | 28.4 | 57.8 | > 100 | > 100 | 68.8 |  | > 100 | 52.3 | 21.7 |  |  |  |  |  |  |  |  | 
COC(=S)OC1CC(n2cnc3c(N)ncnc32)OC1CO[Si](C)(C)C(C)(C)C (centres undefined) | 39.9 | 24 | 69.5 |  |  | 72.8 | 59.3 | 40.8 | > 100 | > 100 |  |  |  |  |  |  |  |  | 
CCCSc1ccc2[nH]c(N3C(=O)/C(=C/c4cc(OC)c(OC)c(OC)c4)N=C3c3ccccc3)cc2c1 | > 37.5 | > 37.5 | > 37.5 | > 25 | > 37.5 | > 37.5 | 36.6 | > 37.5 | 17.3 | > 34.9 |  |  |  |  |  |  |  |  | 
CSCCC(NC(=O)OCc1ccccc1)P(=O)(O)c1ccccc1 (centres undefined) | > 100 |  | > 100 |  | > 100 | > 100 | > 100 | > 100 | > 100 | > 100 |  |  |  |  |  |  |  |  | 
CC(=O)c1ccc2c(c1)N(CCCN1CCN(CCO)CC1)c1ccccc1C2 | 26.7 | 23 | 30.7 | 31.5 | 34.8 | 18.9 | 27.4 | 38.9 | 29.2 |  |  |  |  |  |  |  |  |  | 
Cc1ccccc1NC(=O)CC(=O)N1N=C(N2c3ccccc3Sc3ccccc32)CC1c1ccccc1 (centres undefined) |  | > 100 | > 100 |  | > 100 | > 100 | > 100 | > 100 |  | > 100 |  |  |  |  |  |  |  |  | 
O=C1CC2(CCC(O)(c3cccs3)C(C(=O)c3cccs3)C2)C(=O)c2ccccc2N1 (centres undefined) | > 100 | > 100 | > 100 |  |  | > 100 | > 100 | > 100 | > 100 | > 100 |  |  |  |  |  |  |  |  | 
CC(=O)Oc1ccc(CO)cc1OC(C)=O |  | > 100 | > 100 | > 100 | > 100 | > 100 | > 100 | > 100 | 75.2 | > 100 |  |  |  |  |  |  |  |  | 
O=c1[nH]c(Nc2ccc(Cl)cc2)nc2nc[nH]c12 | > 100 | > 100 | > 100 | > 100 | > 100 | > 100 | > 100 |  | > 100 | > 100 |  |  |  |  |  |  |  |  | 
COc1ccc(C(=O)N(C(=O)N2CCN(c3ccccc3)CC2)S(=O)(=O)c2ccccc2)cc1 | 81.9 | 39.6 | 53.5 | 90.5 | 35.2 | > 100 | 72.3 | 26.7 | 48.9 | 42.8 |  |  |  |  |  |  |  |  | 
CC(C)(C)[Si](C)(C)OCC1OC(n2cnc3c(N)ncnc32)CC1OS(C)(=O)=O (centres undefined) | > 100 | > 100 | > 100 |  |  | > 100 | 17.3 | > 100 | > 100 | > 100 |  |  |  |  |  |  |  |  | 
O=S(=O)(O)c1cc(N=[N+]([O-])c2cc(S(=O)(=O)O)c3ccccc3c2)cc2ccccc12 | > 100 | > 100 | > 100 | > 100 | > 100 | > 100 | > 100 | 50.2 | > 100 | > 100 |  |  |  |  |  |  |  |  | 
CCC(C)C(NC(=O)C1CCCN1C(=O)C(CC(C)C)NC(=O)C(CC(C)C)NC(=O)C(N)CC(C)C)C(=O)NC(C(=O)NCC(=O)NC(CC(N)=O)C(=O)NC(CC(C)C)C(=O)NC(CC(C)C)C(=O)NC(CC(C)C)C(N)=O)C(C)C (centres undefined) (H-LLLPIVGNLLL-NH2; configuration not given here) | > 50 | > 50 | > 50 | > 50 | > 50 | > 50 | > 50 | > 50 | > 50 | > 50 |  |  |  |  |  |  |  |  | 
Cc1cnoc1NS(=O)(=O)c1ccc(Nc2nnc(/C=C/c3c(O)ccc4ccccc34)c(=O)n2N)cc1 |  | 52.5 | > 100 | 77.1 | 55.1 |  | > 100 | > 100 | 22.4 | 55.6 |  |  |  |  |  |  |  |  | 
Cc1nc2ncn3c(c-2c1Cc1ccccc1)NC=C(O)N3 | > 100 | > 100 | > 100 | > 100 | > 100 | > 100 |  | > 100 | > 100 |  |  |  |  |  |  |  |  |  | 
COC(=O)C[C@H](COCc1ccccc1)NC(=O)C[C@H](COCc1ccccc1)NC(=O)OC(C)(C)C | > 100 | > 100 | 61.7 | 40.8 | > 100 |  | 65.5 | > 100 | > 100 | > 100 |  |  |  |  |  |  |  |  | 
CCCCCOC(=O)c1cc2cc(CCl)ccc2oc1=O | 37.5 | 5.91 | > 63 | 18.2 | 8.42 | 5.96 | 7.35 | 11.1 | 7.19 | 67.5 |  |  |  |  |  |  |  |  | 
Nc1ccc(-c2nc3cc(F)ccc3s2)cc1CO | > 70 | > 58.7 | > 100 | > 100 | > 100 | > 100 | 43.5 | > 100 | > 100 |  |  |  |  |  |  |  |  |  | 
O=C1c2ccccc2C(C2c3ccccc3C(=O)c3cc(Br)ccc32)c2ccc(Br)cc21 (centres undefined) | > 100 | > 100 | > 100 | > 100 | > 100 | > 100 | > 100 | > 100 |  |  |  |  |  |  |  |  |  |  | 
O=C(O)C(O)C(O)C(O)C(=O)CO (centres undefined) | > 100 | > 100 | > 100 | > 100 | > 100 | > 100 | > 100 | > 100 | > 100 | > 100 |  |  |  |  |  |  |  |  | 
COC1CC(CC2CCC(C)C(C(C)C(=O)O)O2)OC2(OC(C)(C3CCC(C)(C4OC(C5OC(O)(CO)C(C)CC5C)CC4C)O3)CC2C)C1C (centres undefined) | 46 | 4.44 | 41.3 | 30.5 | 45.1 | 4.07 | 16.4 | 33.8 | 1.1 | 1.54 |  |  |  |  |  |  |  |  | 
NC(=S)N1N=C(c2ccccc2O)CC1c1ccccc1 (centres undefined) |  | 29.7 | > 100 | 60 | 61.8 | 39.1 | 54.6 | 53.6 | 27.4 |  |  |  |  |  |  |  |  |  | 
CCCN1C(=O)CSC1=Nc1ccc2cc3ccc(N=C4SCC(=O)N4CCC)cc3nc2c1 | > 100 | > 100 | > 100 | 0.0603 | > 100 | > 100 | 0.334 | > 100 | > 100 | > 100 | 29.6 | 25.1 | 85.9 | 50.7 | 98.2 | > 100 | 0.0391 | 41.1 | > 100
N#Cc1c(N)nc2c(c1-c1ccc(Br)cc1)CSc1ccccc1-2 | 51.6 | 78.1 | > 100 | > 100 |  | 72.5 | 50.2 | > 100 | 98.5 | > 100 |  |  |  |  |  |  |  |  | 
O=c1c2ccccc2[nH]c(=S)n1-c1ccc(N=Nc2cccc3cc(O)ccc23)cc1 | > 100 | > 100 | > 100 | > 100 | > 100 | > 100 | > 100 | > 100 | > 100 | > 100 |  |  |  |  |  |  |  |  | 
CC1CN=C(NS(=O)(=O)c2cc(C(=O)Nc3ccc(F)cc3)c(Cl)cc2S)NN1 (centres undefined) | > 100 | > 100 | > 100 | > 100 | > 100 | > 100 |  | > 100 | > 100 | > 100 |  |  |  |  |  |  |  |  | 
